Values quoted from earlier work in US9393243B1 (priority 2015, dated 2016).
Counter-ions that a name gives are not always drawn. Like-named read-outs stand apart in the source and are kept apart here.

Tests used:
[1] = aqueous solutions, about 0.2 to about 1 weight percent
[2] = test system: a variety of bacterial pathogens; conditions: typical value; T. L. Ke et al. 2001

| Compound | pH at which precipitation was observed ([1]; 5° C.) | pH at which precipitation was observed ([1]; room temperature) | MIC90 [2] |
| --- | --- | --- | --- |
| O=C(O)c1cn(C2CC2)c2cc(N3CCNCC3)c(F)cc2c1=O [ciprofloxacin HCl] | above 5 | above 5.5 |  |
| O=C(O)c1cn(C2CC2)c2cc(N3CCNCC3)c(F)cc2c1=O [ciprofloxacin, 1-cyclopropyl-6-fluoro-1,4-dihydro-4-oxo-7-(1-piperazinyl)-3-quinolinecarboxylic acid] |  |  | around 0.5 μg/g |
| gentamycin |  |  | around 10 μg/gm |
